Target: T1, human recombinant adrenergic α2B receptor (Homo sapiens, UniProt P18089)
T1 construct: expressed in transfected cells; host or cells: CHO-K1 cells
T1 sequence (P18089 1-450): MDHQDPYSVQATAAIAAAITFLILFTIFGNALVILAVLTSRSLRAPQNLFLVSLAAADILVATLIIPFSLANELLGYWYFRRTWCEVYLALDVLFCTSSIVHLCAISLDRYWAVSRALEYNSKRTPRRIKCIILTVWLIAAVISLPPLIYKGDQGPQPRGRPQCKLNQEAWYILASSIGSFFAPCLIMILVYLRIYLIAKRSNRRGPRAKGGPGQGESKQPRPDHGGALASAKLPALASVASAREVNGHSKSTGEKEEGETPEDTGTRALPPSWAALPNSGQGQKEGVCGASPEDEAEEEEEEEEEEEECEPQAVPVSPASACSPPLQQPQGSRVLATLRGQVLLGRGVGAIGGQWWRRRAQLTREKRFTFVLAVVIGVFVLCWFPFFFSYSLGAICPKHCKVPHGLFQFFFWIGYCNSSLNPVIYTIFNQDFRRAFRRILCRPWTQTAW
Test: Adrenergic alpha2B radioligand binding ([3H]Rauwolscine)
Conditions: compound at 1 μM; read-out: Adrenergic (1 μM) α2B, percent inhibition of specific binding
Protocol: To evaluate in radioligand binding assays the activity of compounds of the invention, human recombinant adrenergic α2B receptor expressed in Chinese hamster ovary (CHO-K1) cells (Uhlen S et al. Eur J. Pharmacol. 343(1):93, 1998) in a modified Tris-HCl buffer (50 mM Tris-HCl, pH 7.4, 12.5 mM MgCl2, 1 mM EDTA, 0.2% BSA) was used. Compounds of the invention were incubated with 2.5 nM [^3H]Rauwolscine for 60 min. at 25° C. Non-specific binding was estimated in the presence of 10 μM Prozosin. Receptor proteins were filtered and washed, the filters were then counted to determine [^3H]Rauwolscine specifically bound. Compounds were screened at 1 μM or lower, using 1% DMSO as vehicle. Biochemical assay results are presented as the percent inhibition of specific binding in Table 5.

SMILES | inhibition at 1 µM [%]
Cc1ccc2c(c1)c1c(n2CCc2cncc(Cl)c2)CCN(C)CC1 [Compound No. 4, 6-(2-(5-chloropyridin-3-yl)ethyl)-1,2,3,4,5,6-hexahydro-3,9-dimethylazepino[4,5-b]indole] | 93
CN1CCc2c(n(CCc3ccncc3)c3ccc(Cl)cc23)CC1 [Compound No. 5, 9-chloro-1,2,3,4,5,6-hexahydro-3-methyl-6-(2-(pyridin-4-yl)ethyl)azepino[4,5-b]indole] | 100
Cc1ccc2c(c1)c1c(n2CCc2ccncc2)CCN(C)CC1 [Compound No. 6, 1,2,3,4,5,6-hexahydro-3,9-dimethyl-6-(2-(pyridin-4-yl)ethyl)azepino[4,5-b]indole] | 106
Cc1ccc(C(O)Cn2c3c(c4cc(Cl)ccc42)CCN(C)CC3)cn1 (stereo not shown) [Compound No. 7, 2-(9-chloro-2,3,4,5-tetrahydro-3-methylazepino[4,5-b]indol-6(1H)-yl)-1-(6-methylpyridin-3-yl)ethanol] | 101
CN1CCc2c(n(CCc3ccccn3)c3ccc(Cl)cc23)CC1 [Compound No. 8, 9-chloro-1,2,3,4,5,6-hexahydro-3-methyl-6-(2-(pyridin-2-yl)ethyl)azepino[4,5-b]indole] | 103
Cc1ccc2c(c1)c1c(n2CCc2ccccn2)CCN(C)CC1 [Compound No. 9, 1,2,3,4,5,6-hexahydro-3,9-dimethyl-6-(2-(pyridin-2-yl)ethyl)azepino[4,5-b]indole] | 90
CN1CCc2c(n(CCc3cncc(Cl)c3)c3ccc(Cl)cc23)CC1 [Compound No. 10, 9-chloro-6-(2-(5-chloropyridin-3-yl)ethyl)-1,2,3,4,5,6-hexahydro-3-methylazepino[4,5-b]indole] | 101
Cc1ccc2c(c1)c1c(n2CCc2ccc(C(=O)O)nc2)CCN(C)CC1 [Compound No. 11, 5-(2-(2,3,4,5-tetrahydro-3,9-dimethylazepino[4,5-b]indol-6(1H)-yl)ethyl)pyridine-2-carboxylic acid] | 3
CN1CCc2c(n(CC(C)(O)c3ccc(Cl)cc3)c3ccc(Cl)cc23)CC1 (stereo not shown) [Compound No. 12, 1-(9-chloro-2,3,4,5-tetrahydro-3-methylazepino[4,5-b]indol-6(1H)-yl)-2-(4-chlorophenyl)propan-2-ol] | 103
CN1CCc2c(n(CC(C)(O)c3ccc(F)cc3)c3ccc(Cl)cc23)CC1 (stereo not shown) [Compound No. 13, 1-(9-chloro-2,3,4,5-tetrahydro-3-methylazepino[4,5-b]indol-6(1H)-yl)-2-(4-fluorophenyl)propan-2-ol] | 105
Cc1ccc2c(c1)c1c(n2CC(C)(O)c2ccc(F)cc2)CCN(C)CC1 (stereo not shown) [Compound No. 14, 2-(4-fluorophenyl)-1-(2,3,4,5-tetrahydro-3,9-dimethylazepino[4,5-b]indol-6(1H)-yl)propan-2-ol] | 100
Cc1ccc2c(c1)c1c(n2CC(C)(O)c2ccc(Cl)cc2)CCN(C)CC1 (stereo not shown) [Compound No. 15, 2-(4-chlorophenyl)-1-(2,3,4,5-tetrahydro-3,9-dimethylazepino[4,5-b]indol-6(1H)-yl)propan-2-ol] | 104
CN1CCc2c(n(CC(O)c3ccc(Cl)cc3)c3ccc(Cl)cc23)CC1 (stereo not shown) [Compound No. 16, 2-(9-chloro-2,3,4,5-tetrahydro-3-methylazepino[4,5-b]indol-6(1H)-yl)-1-(4-chlorophenyl)ethanol] | 99
Cc1ccc2c(c1)c1c(n2CC(O)c2ccc(Cl)cc2)CCN(C)CC1 (stereo not shown) [Compound No. 17, 1-(4-chlorophenyl)-2-(2,3,4,5-tetrahydro-3,9-dimethylazepino[4,5-b]indol-6(1H)-yl)ethanol] | 99
CN1CCc2c(n(CC(O)c3cccnc3)c3ccc(Cl)cc23)CC1 (stereo not shown) [Compound No. 18, 2-(9-chloro-2,3,4,5-tetrahydro-3-methylazepino[4,5-b]indol-6(1H)-yl)-1-(pyridin-3-yl)ethanol] | 98
Cc1ccc2c(c1)c1c(n2CC(O)c2cccnc2)CCN(C)CC1 (stereo not shown) [Compound No. 19, 2-(2,3,4,5-tetrahydro-3,9-dimethylazepino[4,5-b]indol-6(1H)-yl)-1-(pyridin-3-yl)ethanol] | 90
Cc1ccc2c(c1)c1c(n2CCc2ccc(C(F)(F)F)nc2)CCN(C)CC1 [Compound No. 20, 6-(2-(6-(trifluoromethyl)pyridin-3-yl)ethyl)-1,2,3,4,5,6-hexahydro-3,9-dimethylazepino[4,5-b]indole] | 88
CN1CCc2c(n(CCc3ccc(C(=O)O)nc3)c3ccc(Cl)cc23)CC1 [Compound No. 21, 5-(2-(9-chloro-2,3,4,5-tetrahydro-3-methylazepino[4,5-b]indol-6(1H)-yl)ethyl)pyridine-2-carboxylic acid] | 6
Cc1ccc2c(c1)c1c(n2CC(=O)NC2CCCCC2)CCN(C)CC1 [Compound No. 22, N-cyclohexyl-2-(2,3,4,5-tetrahydro-3,9-dimethylazepino[4,5-b]indol-6(1H)-yl)acetamide] | -7
Cc1ccc2c(c1)c1c(n2CC(O)c2ccc(C)nc2)CCN(C)CC1 (stereo not shown) [Compound No. 23, 2-(2,3,4,5-tetrahydro-3,9-dimethylazepino[4,5-b]indol-6(1H)-yl)-1-(6-methylpyridin-3-yl)ethanol] | 25
CN1CCc2c(n(CC(O)c3ccccc3)c3ccc(Cl)cc23)CC1 (stereo not shown) [Compound No. 24, 2-(9-chloro-2,3,4,5-tetrahydro-3-methylazepino[4,5-b]indol-6(1H)-yl)-1-phenylethanol] | 99
Cc1ccc2c(c1)c1c(n2CC(O)c2ccccc2)CCN(C)CC1 (stereo not shown) [Compound No. 25, 2-(2,3,4,5-tetrahydro-3,9-dimethylazepino[4,5-b]indol-6(1H)-yl)-1-phenylethanol] | 104
Cc1ccc(C(O)Cn2c3c(c4cc(Cl)ccc42)CCN(C)CC3)cc1 (stereo not shown) [Compound No. 26, 2-(9-chloro-2,3,4,5-tetrahydro-3-methylazepino[4,5-b]indol-6(1H)-yl)-1-p-tolylethanol] | 104
Cc1ccc(C(O)Cn2c3c(c4cc(C)ccc42)CCN(C)CC3)cc1 (stereo not shown) [Compound No. 27, 2-(2,3,4,5-tetrahydro-3,9-dimethylazepino[4,5-b]indol-6(1H)-yl)-1-p-tolylethanol] | 100
Cc1ccc2c(c1)c1c(n2CCc2ccc(Cl)cc2)CCN(C)CC1 [Compound No. 28, 6-(4-chlorophenethyl)-1,2,3,4,5,6-hexahydro-3,9-dimethylazepino[4,5-b]indole] | 103
CN1CCc2c(n(CCc3ccccc3Cl)c3ccc(Cl)cc23)CC1 [Compound No. 29, 6-(2-chlorophenethyl)-9-chloro-1,2,3,4,5,6-hexahydro-3-methylazepino[4,5-b]indole] | 101
CN1CCc2c(n(CCc3ccc(Cl)cc3)c3ccc(Cl)cc23)CC1 [Compound No. 30, 6-(4-chlorophenethyl)-9-chloro-1,2,3,4,5,6-hexahydro-3-methylazepino[4,5-b]indole] | 100
CC(C)NC(=O)Cn1c2c(c3cc(Cl)ccc31)CCN(C)CC2 [Compound No. 31, 2-(9-chloro-2,3,4,5-tetrahydro-3-methylazepino[4,5-b]indol-6(1H)-yl)-N-isopropylacetamide] | 23
